Target: T. brucei PKAR-PKAC1 holoenzyme (Trypanosoma brucei, UniProt Q9GU80)
Test: biochemical
Assay type: biochemical

Compound: N#Cc1cn([C@@H]2O[C@H](CO)[C@@H](O)[C@H]2O)c2ncnc(O)c12 [7-CN-7-C-Ino, 7-Cyano-7-deazainosine]
- EC50: 6.5 ± 4.6 nM
